Key:
mu-1 receptor (MU1R) = test: Tail flick test of MOR-mediated anti-nociception in PNA-treated rats; format: in vivo, rat
Description: The injection of MOR into rats produces a potent anti-nociceptive response. This response is mediated by specific MOR receptors and is inhibited by naloxone. A very sensitive and reliable tail flick test was devised and used to measure the anti-nociceptive effects of MOR (D'Amour F. E. and Smith D. L, J. Pharm. Exp. Therap. 72:74-79 (1941)).
MU1R-PNA, NTR1-PNA, and ACSF treated as well as untreated rats were analyzed using the MOR-specific tail flick test. One day after the last treatment, each rat was analyzed as follows. Thirty minutes prior to testing, a pre-drug latency measurement was made by placing the tail of the restrained rat in oil maintained at a temperature of 60° C. and recording the time elapsed before the rat flicked its tail. After making this measurement, an appropriate dose of MOR (5 mg/kg of body weight) at a volume of about 200 μl was injected i.p. Thirty minutes after administering MOR, the restrained rat's tail was again placed in the oil maintained at 60° C. and the latency between the time the tail was placed in the oil and the time the rat flicked its tail was measured. […] Tail flick tests were scored as the percent of MPE and calculated using the following equation: % MPE=[(post-drug latency−pre-drug latency)/(cut-off−pre-drug latency)]×100; where the cut-off is 12 seconds. […] This average for untreated control rats was used to set the baseline A MPE value to 100. All test situations were compared to this baseline response value derived from MOR responsive untreated controls. To test the significance, data were analyzed using the Student's t-test with p<0.05 being considered significant.
AS-NTR1-PNA, mismatch-AS-NTR1-PNA, and MU1R-PNA were injected intraperitoneally (10 mg/kg) independently, into separate groups of male Sprague-Dawley rats (Harlan, Prattville, Ala.). The sense-NTR1-PNA oligomer, however, was microinjected directly into the periaqueductal gray (PAG; 5 μg), the major area in the brain involved with perception of pain (nociception). […] Thirty minutes after receiving NT, animals were scored for anti-nociception (hot plate at 52° C.) and hypothermia (rectal probe). Again, anti-nociception scores were calculated as percent of maximum possible effect (% MPE) with the following equation: % MPE=[(post-drug latency time minus pre-drug latency time)/(cut-off time minus pre-drug latency time)]×100; where the cut-off time (i.e., the time when the animal was removed from the device) was 30 seconds for a hot plate test and 12 seconds for a tail flick test. Statistical analysis was done using the rank sum test.

[1] = tested on: NTR1 cDNA synthesis from total brain RNA; test: In vitro reverse transcription assay; format: biochemical, rat; conditions: 1 μg total brain RNA incubated with 600 ng PNA
Description: An in vitro reverse transcription assay was performed-as follows. Total RNA was isolated from 20 mg of tissue using the RNeasy Kit (Qiagen, Chatsworth, Calif.). After isolation, total RNA (lug) was incubated with the PNA oligomers (600 ng) at 40° C. for 40 minutes. Exogenous cRNA standards were added, and cDNA was synthesized using the cDNA Cycle Kit and gene-specific primers for NTR1 and GAPDH (Invitrogen, Carlsbad, Calif.). The exogenous cRNA standards were synthesized from dsDNA templates using the Megashort-Script Kit (Ambion, Austin, Tex.). The dsDNA templates for exogenous cRNA standards for the NTR1- and GAPDH-specific cDNA reactions were constructed using the PCR MIMIC Construction Kit (Clontech) and composite primers. […] After using the cDNA Cycle Kit, quantitative PCR was performed on each sample. […] Products were detected using a Storm860 Phosphoimager (Molecular Dynamics, Sunnyvale, Calif.) and data were analyzed using Image Quant Software (Molecular Dynamics, Sunnyvale, Calif.).
Using this in vitro reverse transcription assay, 1 μg of total RNA isolated from the brain of an untreated rat was incubated with 600 ng of the AS-NTR1-PNA or mismatch-AS-NTR1PNA oligomer and NTR1 cDNA production assessed. […]

[2] = tested on: neurotensin receptor-1 (NTR1); test: Hot plate test of NT-mediated anti-nociception in PNA-treated rats; format: in vivo, rat

Substance: NTR1-PNA: 12-mer antisense PNA oligomer to rat NTR1 coding region, 5′-CATTGCTCAAAC-3′ (SEQ ID NO: 1) (all peptide nucleic acid (PNA))
- anti-nociception score (tail flick) after MOR (mu-1 receptor (MU1R); 10 mg/kg i.p. treated animals lacking NT anti-nociception, MOR 5 mg/kg i.p.): 95 % MPE
- MPE (tail flick) response to MOR challenge as percent of baseline response (mu-1 receptor (MU1R); PNA injected into PAG on days -4, -2, 0, MOR 5 mg/kg i.p.): indistinguishable from baseline responses
- Responsiveness: Morphine (anti-nociception) (mu-1 receptor (MU1R); intraperitoneal administration, Table VI): normal
- reduction in NTR1 cDNA synthesis [1]: 65%
- duration of complete lack of NT responsiveness ([2]; after single oral 10 mg/kg): at least 48 hours
- ED50 for reducing NT anti-nociception ([2]; intraperitoneal dose-response, one batch of PNA): 2.6 mg/kg
- responsiveness to NT challenge (anti-nociception and hypothermia) ([2]; one day after single i.p. injection of 3 mg/kg): unable to respond to NT challenge
- NT responsiveness ([2]; rats given single oral 10 mg/kg, Table III): LOST
- hypothermic and anti-nociceptive responses to NT ([2]; twelve hours after 10 mg/kg by gastric intubation (oral), nine rats): either completely abolished (8/9) or nearly completely abolished (1/9)

Source: US6989270B1, “Using polyamide nucleic acid oligomers to engender a biological response” (Mayo Foundation for Medical Education and Research, priority 1997, dated 2006)
